# Experimental data reported in PMC9867332 (Pharmaceutics, 2022).
# Where two headings read alike, the source gives them in different places.
# Assays:
# [1] = MTT cytotoxicity assay on uninfected Vero cells; type: cell-based; details: African green monkey, uninfected Vero cells (CCL-81), 3 days at 37 °C, read-out: CC50 (half-maximum cytotoxic concentration)
# Experimental: Vero cells (CCL-81, American Type Culture Collection, Boston, MA, USA), used as a cellular model for antiviral bioassay, were cultured in Dulbecco’s modified Eagle’s medium (DMEM), supplemented with 10% fetal bovine serum (FBS) and gentamycin, and incubated at 37 °C with 5% CO2. They were used to adapt the avian Massachusetts serotype CoV-IBV strain.
# Cell viability was evaluated using the MTT (3-(4,5-dimethylthiazol-2-yl)-2,5-diphe- nyltetrazolium bromide) method. The MTT assay is sensitive and reliable for cellular metabolic activity. It is based on the ability of nicotinamide adenine dinucleotide phosphate (NADPH)-dependent cellular oxidoreductase enzyme to reduce the tetrazolium dye to the purple formazan crystals. Sub-confluent Vero cells, seeded in 96-well microplates (2 × 10^6 cells/microplate; Thermo Fisher Scientific), were incubated with serial dilutions of synthesized molecules, in duplicates for 3 days at 37 °C. MTT solution (500 μg/mL) was then added, and the cells were incubated for further 4 h. The formed formazan crystals within metabolically viable cells were then dissolved in 100 µL of DMSO, and the absorption, proportional to viable cell number, was measured at 490 nm with a Thermo Scientific Multiskan FC. The results were expressed as a percentage of viable cells relative to the negative control (untreated cells cultured in standard medium and considered 100% viable). The half-maximum cytotoxic concentration (CC50), which was defined as the concentration which reduced the OD490 of the 1,3,4-oxadiazole-derived α-aminophosphonates/α-aminophosphonic acids-treated cells to 50% of that of untreated cells, were determined from the plotted curve of percentages of viable cells against compound concentrations.
# [2] = system: avian CoV-IBV; test: microbe, parasite or virus in culture; type: cell-based; details: for Virucidal Activity Inhibition (%): 2 h incubation with virus at 37 °C, qRT-PCR
# [3] = system: avian CoV-IBV; type: cell-based; details: IBV titration in infected Vero cells, qRT-PCR, 3 days post-infection
# [4] = system: IBV Beaudette strain; set-up: method as in PMID 17479370; details: 5 to 50 mM; cited from earlier work
# [5] = system: IBV; set-up: method as in PMID 17479370; details: dose-dependent, without virucidal effect; cited from earlier work
# [6] = Avian coronavirus, 2 h, read-out: Virucidal Activity Inhibition (%)
Structure (SMILES),CC50 at 3 days [1] [µM],"inhibition at 3.66 µM [2, 6] [%]",Antiviral Activity ([3]; 3.66 µM),"inhibition at 33 µM [2, 6] [%]",Antiviral Activity ([3]; 33 µM),further results
"O=P(O)(O)C(Nc1nnc(-c2ccccc2)o1)c1cc(F)c(F)c(F)c1 (stereo not shown) [6d, [(5-Phenyl-1,3,4-oxadiazol-2-ylamino)(3,4,5-trifluophenyl)methyl]phosphonic acid]",~550,25 ± 1.15,Not active,–,–,–
"O=P(O)(O)C(Nc1nnc(-c2ccccc2)o1)c1ccc(F)cc1 (stereo not shown) [6c, [(5-Phenyl-1,3,4-oxadiazol-2-ylamino)(4-fluorophenyl)methyl]phosphonic acid]",–,–,–,59.6 ± 1.34,Not active,–
"O=P(O)(O)C(Nc1nnc(-c2ccccc2)o1)c1ccc(C(F)(F)F)cc1 (stereo not shown) [6a, [(5-phenyl-1,3,4-oxadiazol-2-ylamino)(4-trifluoromethylphenyl)methyl] phosphonic acid]",~550,–,–,–,–,"Virucidal Activity Inhibition (%) ([2]; 1.23 µM): strongly inhibited the IBV infectivity; inhibition at 1.23 µM [2, 6]: 75 ± 0.75%; Antiviral Activity ([3]; 1.23 µM): Not active; melting point: > 260 °C"
"O=[N+]([O-])c1ccc(C(Nc2nnc(-c3ccccc3)o2)P(=O)(O)O)cc1 (stereo not shown) [6b, [(5-Phenyl-1,3,4-oxadiazol-2-ylamino)(4-nitrophenyl)methyl]phosphonic acid]",~550,31.4 ± 2.4,Not active,–,–,–
"CCOP(=O)(OCC)C(Nc1nnc(-c2ccccc2)o1)c1ccc(F)cc1 (stereo not shown) [5c, diethyl[(5-phenyl-1,3,4-oxadiazol-2-ylamino)(4-fluorophenyl)methyl]phosphonate]",~550,46 ± 1.49,Not active,–,–,–
"CCOP(=O)(OCC)C(Nc1nnc(-c2ccccc2)o1)c1ccc([N+](=O)[O-])cc1 (stereo not shown) [5b, diethyl[(5-phenyl-1,3,4-oxadiazol-2-ylamino) (4-nitrophenyl)methyl]phosphonate]",1599 ± 4.73,–,–,35 ± 0.53,Not active,–
"CCOP(=O)(OCC)C(Nc1nnc(-c2ccccc2)o1)c1ccc(OC(F)(F)F)cc1 (stereo not shown) [5f, diethyl[(5-phenyl-1,3,4-oxadiazol-2-ylamino)(4-trifluoromethoxyphenyl)methyl]phosphonate]",–,–,–,86.1 ± 1.58,Not active,Virucidal Activity Inhibition (%) ([2]; 33 µM): strongly inhibited the IBV infectivity; melting point: 106.6 to 107.5 °C
"[Cl-].[Li+] [LiCl, lithium chloride]",–,–,–,–,–,virucidal activity (virus titre after incubation) [4]: did not modify the title of the virus; replication of IBV in Vero cells [5]: suppress the replication of IBV in Vero cells in a dose-dependent manner
"O=P(O)(O)C(Nc1nnc(-c2ccccc2)o1)c1cc(C(F)(F)F)cc(C(F)(F)F)c1 (stereo not shown) [6e, [(5-Phenyl-1,3,4-oxadiazol-2-ylamino)(3,5-bis-trifuoromethyl-phenyl)methyl] phosphonic acid]",~550,–,–,22.7 ± 3.25,Not active,–
